The source of these data is PubChem BioAssay (NCI).

Among the test systems are NCI-H226 lung; LOX IMVI melanoma; SF-295 CNS; SN12C renal; OVCAR-3 ovarian; DU-145 prostate; M14 melanoma; MCF7 breast; HOP-62 NSCLC; SW-620 colon; OVCAR-8 ovarian; EKVX NSCLC; A549 NSCLC; NCI-H460 lung; OVCAR-5 ovarian; COLO 205 colon; HS 578T breast; RXF 393 renal; HL-60(TB) leukemia.
Experiment in all cases: DTP human tumour cell line panel, 48 h

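Compound exposure: 48 hours, 5 concentrations, 96-well plates. TGI: concentration producing complete growth inhibition.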 Bounds are passed on as bounds.

One may read the TGI as the concentration giving total growth inhibition. Low values mean more potent growth arrest, high ones less potent growth arrest. With `Nc1sccc1S(=O)(=O)c1ccsc1N`, the TGI with NCI-H226 lung, in the experiment with LOX IMVI melanoma, with SF-295 CNS, in the experiment with SN12C renal, in the experiment with OVCAR-3 ovarian and with DU-145 prostate was over 100 µM in each case. Moreover, the concentration for total growth inhibition (TGI) in the experiment with M14 melanoma, in the experiment with MCF7 breast, in the experiment with HOP-62 NSCLC, in the experiment on SW-620 colon, with OVCAR-8 ovarian and in the experiment with EKVX NSCLC was over 100 µM throughout. Moreover, the TGI in the experiment on A549 NSCLC, in the experiment on NCI-H460 lung, with OVCAR-5 ovarian, in the experiment with COLO 205 colon and with HS 578T breast was over 100 µM throughout.

Regarding `CCN(CC)CCC(=O)c1ccc(Oc2ccc(C)cc2)cc1`, the TGI came out at 30.2 µM in the experiment on RXF 393 renal; 86.8 µM in the experiment with NCI-H226 lung; 31 µM in the experiment on LOX IMVI melanoma; 36.4 µM in the experiment with SF-295 CNS; 30.4 µM with SN12C renal; 32.4 µM in the experiment with OVCAR-3 ovarian. The TGI in the experiment with DU-145 prostate was 95.3 µM; in the experiment on M14 melanoma, 31.9 µM; in the experiment with MCF7 breast it was 32.9 µM; in the experiment with HOP-62 NSCLC, 39.3 µM; in the experiment with SW-620 colon, 33.8 µM; in the experiment on OVCAR-8 ovarian, 39.4 µM. The TGI with EKVX NSCLC is 38.2 µM; with A549 NSCLC, over 100 µM; with OVCAR-5 ovarian, 41 µM; in the experiment with COLO 205 colon, 45.1 µM; with HS 578T breast it was 44.6 µM.

For `COc1cccc(N=N/C(=N/NC(=O)c2cc(Cl)ccc2O)c2ccc(N(CCC#N)CCC#N)cc2C)c1`, the TGI with RXF 393 renal is over 100 µM; in the experiment on NCI-H226 lung, over 100 µM; in the experiment with SF-295 CNS it was over 100 µM; in the experiment with SN12C renal it was over 100 µM; in the experiment with OVCAR-3 ovarian it was 6.48 µM; in the experiment with DU-145 prostate it was over 100 µM. The TGI in the experiment on M14 melanoma is over 100 µM; in the experiment with MCF7 breast it was 79.1 µM; in the experiment on HOP-62 NSCLC, over 100 µM; with OVCAR-8 ovarian, 55.3 µM; with EKVX NSCLC it was over 100 µM; with A549 NSCLC, over 100 µM. The total growth inhibition concentration (TGI) with NCI-H460 lung was over 100 µM; in the experiment with OVCAR-5 ovarian it was over 100 µM; with COLO 205 colon it was 41.2 µM; in the experiment with HS 578T breast, over 100 µM.

As for `Nc1ccc(-c2nc3cc(F)ccc3s2)cc1Br`, the TGI in the experiment on RXF 393 renal, in the experiment on LOX IMVI melanoma, in the experiment with SF-295 CNS, with SN12C renal, with OVCAR-3 ovarian and in the experiment with DU-145 prostate was over 100 µM each time. In addition, the total growth inhibition concentration (TGI) with HL-60(TB) leukemia is over 100 µM; in the experiment on M14 melanoma, over 100 µM; in the experiment on MCF7 breast it was 0.528 µM; in the experiment on HOP-62 NSCLC, over 100 µM; with SW-620 colon it was over 100 µM; in the experiment with OVCAR-8 ovarian, over 100 µM. Also, the TGI with EKVX NSCLC is over 63.6 µM; in the experiment on A549 NSCLC, over 100 µM; in the experiment on NCI-H460 lung, over 46 µM; in the experiment with OVCAR-5 ovarian, over 100 µM; in the experiment with COLO 205 colon it was over 100 µM; in the experiment on HS 578T breast, over 100 µM.

Regarding `N#Cc1cc2c(n(C3OC(CO)C(O)C(O)C3O)c1=S)CCCCC2` (stereo not drawn), the TGI in the experiment with RXF 393 renal, in the experiment on NCI-H226 lung, in the experiment on LOX IMVI melanoma, in the experiment on SF-295 CNS, with SN12C renal and in the experiment on OVCAR-3 ovarian was over 100 µM throughout. In addition, the TGI in the experiment on DU-145 prostate, in the experiment with HL-60(TB) leukemia, in the experiment with M14 melanoma, in the experiment on MCF7 breast, in the experiment on HOP-62 NSCLC and in the experiment on OVCAR-8 ovarian was over 100 µM each time. The TGI in the experiment on A549 NSCLC, in the experiment on NCI-H460 lung, in the experiment on OVCAR-5 ovarian, in the experiment with COLO 205 colon and in the experiment on HS 578T breast was over 100 µM in each case.

`CCOC(=O)N/N=C/C1=NN(C(=O)OCC)S(=O)C1C` (stereo not drawn): the TGI in the experiment on RXF 393 renal, in the experiment on NCI-H226 lung, in the experiment with SF-295 CNS, in the experiment on SN12C renal, in the experiment with OVCAR-3 ovarian and in the experiment on DU-145 prostate was over 100 µM in each case. The TGI with HL-60(TB) leukemia, in the experiment with M14 melanoma, in the experiment on MCF7 breast, with HOP-62 NSCLC, with SW-620 colon and in the experiment with OVCAR-8 ovarian was over 100 µM each time. Besides, the TGI with EKVX NSCLC, in the experiment with A549 NSCLC, with NCI-H460 lung, in the experiment with OVCAR-5 ovarian, in the experiment with COLO 205 colon and in the experiment with HS 578T breast was over 100 µM throughout.

Take `COc1cc(/C=C2\N=C(c3ccccc3)N(c3nc4c(Cl)cc(Cl)cc4s3)C2=O)ccc1O`: the TGI in the experiment on RXF 393 renal is 49.1 µM; with LOX IMVI melanoma, 53.6 µM; in the experiment on SF-295 CNS, over 100 µM; in the experiment with SN12C renal, 51.4 µM; in the experiment with OVCAR-3 ovarian it was 91.9 µM; in the experiment on DU-145 prostate, over 100 µM. Moreover, the concentration for total growth inhibition (TGI) with HL-60(TB) leukemia is 39.7 µM; with M14 melanoma, over 100 µM; in the experiment with MCF7 breast, over 100 µM; in the experiment on HOP-62 NSCLC it was over 100 µM; in the experiment with SW-620 colon, over 100 µM; in the experiment on OVCAR-8 ovarian, over 100 µM. Besides, the TGI in the experiment on EKVX NSCLC was over 100 µM; in the experiment on A549 NSCLC it was over 100 µM; in the experiment on NCI-H460 lung, over 100 µM; with OVCAR-5 ovarian, over 100 µM; with COLO 205 colon, over 100 µM; with HS 578T breast, 57.2 µM.

Regarding `CC(=O)Oc1ccn2nc(C)c(Cc3c(C)nn4ccc(OC(C)=O)cc34)c2c1`, the TGI in the experiment with NCI-H226 lung was over 100 µM; with LOX IMVI melanoma, over 100 µM; with SF-295 CNS it was 68.8 µM; in the experiment with SN12C renal, over 100 µM; in the experiment on OVCAR-3 ovarian it was over 100 µM; in the experiment on DU-145 prostate it was over 100 µM. Further, the TGI with HL-60(TB) leukemia is over 100 µM; with M14 melanoma, over 100 µM; in the experiment on MCF7 breast, over 10 µM; in the experiment on HOP-62 NSCLC, over 100 µM; in the experiment with SW-620 colon it was over 100 µM; with OVCAR-8 ovarian, over 100 µM. Also, the TGI in the experiment with EKVX NSCLC, with A549 NSCLC, in the experiment on NCI-H460 lung, with OVCAR-5 ovarian and with HS 578T breast was over 100 µM each time.
